# Measured values taken from ChEMBL document CHEMBL1149774, “Synthesis of N-(5,7-diamino-3-phenyl-quinoxalin-2-yl)-3,4,5-substituted anilines and N-[4[(5,7-diamino-3-phenylquinoxalin-2-yl)amino]benzoyl]-l-glutamic acid diethyl ester: evaluation of in vitro anti-cancer and anti-folate activities” (Eur J Med Chem, 2008).
# Activity calls are given as the source filed them. No cut-off for these calls is given here.
# Key:
# OVCAR-4 = assay: Growth inhibition of human OVCAR4 cells after 48 hrs by SRB staining method; type: functional; settings: OVCAR-4, 48 h
# OVCAR-3 = assay: Growth inhibition of human OVCAR-3 cells after 48 hrs by SRB staining method; type: functional; settings: OVCAR-3, 48 h
# LOX IMVI = assay: Growth inhibition of human LOX IMVI cells after 48 hrs by SRB staining method; type: functional
# MDA-MB-435 = assay: Growth inhibition of human MDA-MB-435 cells after 48 hrs by SRB staining method; type: functional; settings: MDA-MB-435, 48 h
# NCI-H522 = assay: Growth inhibition of human NCI-H522 cells after 48 hrs by SRB staining method; type: functional; settings: NCI-H522, 48 h
# [1] = biological target: T1, Dihydrofolate reductase (Homo sapiens) (UniProt P00374); assay: Inhibition of human dihydrofolate reductase at 10 uM
# T1 sequence (whole entry): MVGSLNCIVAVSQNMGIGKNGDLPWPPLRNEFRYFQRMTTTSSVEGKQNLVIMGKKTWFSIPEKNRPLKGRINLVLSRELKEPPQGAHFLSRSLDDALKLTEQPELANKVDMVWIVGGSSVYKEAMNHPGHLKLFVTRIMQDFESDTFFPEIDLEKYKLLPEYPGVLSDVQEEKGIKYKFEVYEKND
# EKVX = assay: Growth inhibition of human EKVX cells after 48 hrs by SRB staining method; type: functional
# A549 = assay: Growth inhibition of human A549 cells after 48 hrs by SRB staining method; type: functional; settings: A549, 48 h
# SF-539 = assay: Growth inhibition of human SF539 cells after 48 hrs by SRB staining method; type: functional; settings: SF-539, 48 h
# SK-MEL-28 = assay: Growth inhibition of human SK-MEL-28 cells after 48 hrs by SRB staining method; type: functional; settings: SK-MEL-28, 48 h
# SK-MEL-5 = assay: Growth inhibition of human SK-MEL-5 cells after 48 hrs by SRB staining method; type: functional; settings: SK-MEL-5, 48 h
# HOP-62 = assay: Growth inhibition of human HOP62 cells after 48 hrs by SRB staining method; type: functional; settings: HOP-62, 48 h
# HCT-116 = assay: Growth inhibition of human HCT116 cells after 48 hrs by SRB staining method; type: functional; settings: HCT-116, 48 h
# TK-10 = assay: Growth inhibition of human TK10 cells after 48 hrs by SRB staining method; type: functional; settings: TK-10, 48 h
# CCRF-CEM = assay: Growth inhibition of human CCRF-CEM cells after 48 hrs by SRB staining method; type: functional
# KM12 = assay: Growth inhibition of human KM12 cells after 48 hrs by SRB staining method; type: functional; settings: KM12, 48 h
# [2] = Growth inhibition of human HS 578T cells after 48 hrs by SRB staining method; type: functional
# SN12C = assay: Growth inhibition of human SN12C cells after 48 hrs by SRB staining method; type: functional
# SW-620 = assay: Growth inhibition of human SW620 cells after 48 hrs by SRB staining method; type: functional; settings: SW-620, 48 h
# NCI-H322M = assay: Growth inhibition of human NCI-H322M cells after 48 hrs by SRB staining method; type: functional
# M14 = assay: Growth inhibition of human M14 cells after 48 hrs by SRB staining method; type: functional; settings: M14, 48 h
# RPMI-8226 = assay: Growth inhibition of human RPMI8226 cells after 48 hrs by SRB staining method; type: functional; settings: RPMI-8226, 48 h
# Thymidylate synthase [3] = biological target: Thymidylate synthase (Homo sapiens, UniProt P04818)
# Sequence of Thymidylate synthase (Homo sapiens, UniProt P04818) (P04818 whole entry): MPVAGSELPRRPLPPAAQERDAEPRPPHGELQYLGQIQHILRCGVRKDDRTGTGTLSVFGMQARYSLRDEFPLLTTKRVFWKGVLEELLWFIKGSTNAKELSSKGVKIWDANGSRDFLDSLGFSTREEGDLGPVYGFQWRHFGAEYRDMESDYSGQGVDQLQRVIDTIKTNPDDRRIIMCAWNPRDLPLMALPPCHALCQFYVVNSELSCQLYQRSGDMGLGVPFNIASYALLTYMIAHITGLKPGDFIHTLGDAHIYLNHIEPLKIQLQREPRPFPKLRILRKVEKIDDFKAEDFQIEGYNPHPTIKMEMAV
# Description: Inhibition of human thymidylate synthase
# Thymidylate synthase [4] = biological target: T2, Thymidylate synthase (Lactobacillus casei, UniProt P00469)
# T2 sequence (P00469 whole entry): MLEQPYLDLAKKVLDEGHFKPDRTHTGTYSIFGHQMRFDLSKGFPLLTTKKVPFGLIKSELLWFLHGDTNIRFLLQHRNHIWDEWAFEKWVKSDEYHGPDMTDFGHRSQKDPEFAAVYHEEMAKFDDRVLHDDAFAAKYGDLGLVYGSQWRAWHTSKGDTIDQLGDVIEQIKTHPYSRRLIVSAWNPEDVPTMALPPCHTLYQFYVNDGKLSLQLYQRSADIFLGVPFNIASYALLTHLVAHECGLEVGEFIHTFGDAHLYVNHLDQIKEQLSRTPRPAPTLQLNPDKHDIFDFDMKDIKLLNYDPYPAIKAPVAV
# Description: Inhibition of Lactobacillus casei thymidylate synthase
# [5] = read-out: pLC50 (the source's name) (converted)
compound,measurement,setting,value
Nc1cc(N)c2nc(-c3ccccc3)c(Nc3ccc(Cl)c(Cl)c3)nc2c1,GI50,OVCAR-4,11.2 µM
same,LC50,OVCAR-4,> 100 µM
same,TGI,OVCAR-4; read-out: pTGI (converted),47.9 µM
same,GI50,OVCAR-3,2.95 µM
same,LC50,OVCAR-3,37.2 µM
same,TGI,OVCAR-3; read-out: pTGI (converted),10 µM
same,GI50,LOX IMVI,4.37 µM
same,LC50,LOX IMVI,> 100 µM
same,TGI,LOX IMVI; read-out: pTGI (converted),> 100 µM
same,GI50,MDA-MB-435,2.14 µM
same,CC50,MDA-MB-435; [5],9.77 µM
same,TGI,MDA-MB-435; read-out: pTGI (converted),45.7 µM
same,GI50,NCI-H522,5.25 µM
same,LC50,NCI-H522,69.2 µM
same,TGI,NCI-H522; read-out: pTGI (converted),21.9 µM
same,Activity,[1],inactive
same,GI50,EKVX,3.8 µM
same,CC50,EKVX; [5],47.9 µM
same,TGI,EKVX; read-out: pTGI (converted),16.2 µM
same,GI50,A549,10.7 µM
same,CC50,A549; [5],> 100 µM
same,TGI,A549; read-out: pTGI (converted),34.7 µM
same,GI50,SF-539,17 µM
same,LC50,SF-539,72.4 µM
same,TGI,SF-539; read-out: pTGI (converted),35.5 µM
same,GI50,SK-MEL-28,16.2 µM
same,CC50,SK-MEL-28; [5],> 100 µM
same,TGI,SK-MEL-28; read-out: pTGI (converted),44.7 µM
same,GI50,SK-MEL-5,11 µM
same,LC50,SK-MEL-5,58.9 µM
same,TGI,SK-MEL-5; read-out: pTGI (converted),25.7 µM
same,GI50,HOP-62,17.4 µM
same,LC50,HOP-62,81.3 µM
same,TGI,HOP-62; read-out: pTGI (converted),38 µM
same,GI50,HCT-116,10.7 µM
same,LC50,HCT-116,> 100 µM
same,TGI,HCT-116; read-out: pTGI (converted),52.5 µM
same,GI50,TK-10,13.8 µM
same,CC50,TK-10; [5],66.1 µM
same,TGI,TK-10; read-out: pTGI (converted),30.2 µM
same,GI50,CCRF-CEM,1.29 µM
same,CC50,CCRF-CEM; [5],> 100 µM
same,GI50,KM12,5.89 µM
same,LC50,KM12,87.1 µM
same,TGI,KM12; read-out: pTGI (converted),24.5 µM
same,GI50,[2],19.1 µM
same,CC50,[2]; [5],> 100 µM
same,TGI,[2]; read-out: pTGI (converted),51.3 µM
same,GI50,SN12C,12.6 µM
same,CC50,SN12C; [5],79.4 µM
same,TGI,SN12C; read-out: pTGI (converted),31.6 µM
same,GI50,SW-620,13.2 µM
same,CC50,SW-620; [5],> 100 µM
same,TGI,SW-620; read-out: pTGI (converted),51.3 µM
same,LC50,NCI-H322M,63.1 µM
same,GI50,M14,14.8 µM
same,LC50,M14,> 100 µM
same,TGI,M14; read-out: pTGI (converted),60.3 µM
same,GI50,RPMI-8226,2 µM
same,CC50,RPMI-8226; [5],> 100 µM
same,TGI,RPMI-8226; read-out: pTGI (converted),4.9 µM
same,Ki,Thymidylate synthase [3],0.9 µM
same,Ki,Thymidylate synthase [4],1 µM
